Measured values as given in US8053435B2, “Naphthalenyloxypropenyl derivatives having inhibitory activity against histone deacetylase and pharmaceutical composition comprising the same” (Korea Research Institute of Chemical Technology, priority 2006, dated 2011).

Tested on: HDAC
Assay: Inhibitory activity against HDAC (BIOMOL Quantizyme Assay system, Fluor de Lys substrate)
Assay type: biochemical
Conditions: Table 1, formula (1) series; HeLa nuclear extract as source of HDAC enzymes; enzyme reaction 1 hr; read-out: IC50 (HDAC inhibitory concentration)
Method: HDAC activity was analyzed using BIOMOL Quantizyme™ Assay system which comprised two steps of 1) enzyme reaction between HDAC and a substrate and 2) determination of the level of HDAC inhibitory activity.
(§1) 0.5 μl of HeLa nuclear organic layer (10 μM) (a source of HDAC enzymes) was then added thereto to a final concentration of 100 nM. The enzyme reaction was carried out for 1 hr.
Subsequently, in step 2), 2 μM tricostatin A was added to 50 μl of Flour de Lys™ developer, followed by allowing the mixture to react at room temperature for 15 minutes. The light excited at 355 nm and emitted at 460 nm from the fluorophore was measured with a fluorometric plate reader. The intensity of the fluorescence increases as the enzyme activity is higher. The HDAC inhibitory activity of each of the test compounds was determined and compared with that of the control.
0.5 μl of HeLa nuclear organic layer (10 μM) (a source of HDAC enzymes) was then added thereto to a final concentration of 100 nM, The enzyme reaction was carried out for 1 hr.
as §1, §1

| IC50 | Compound |
| --- | --- |
| 0.04 µM | O=C(NCCCN1CCCC1=O)/C(=C/c1ccc(C(=O)NO)cc1)COc1cccc2ccccc12 [Example 1-11, (E)-4-(3-(3-(2-Oxopyrrolidin-1-yl)propylamino)-2-((naphthalen-1-yloxy)methyl)-3-oxoprop-1-enyl)-N-hydroxy-benzamide] |
| 0.021 µM | CCOCCCNC(=O)/C(=C/c1ccc(C(=O)NO)cc1)COc1cccc2ccccc12 [Example 1-21, (E)-4-(3-(3-Ethoxypropylamino)-2-((naphthalen-1-yloxy)methyl)-3-oxoprop-1-enyl)-N-hydroxybenzamide] |
| 0.06 µM | O=C(NCC1CCCO1)C(=Cc1ccc(C(=O)NO)cc1)COc1cccc2ccccc12 (centres unmarked) [Example 1-9, (E)-4-(3-(Tetrahydrofuran-2-yl)methylamino)-2-((naphthalen-1-yloxy)methyl)-3-oxoprop-1-enyl)-N-hydroxybenzamide] |
| 0.028 µM | O=C(NCCCn1ccnc1)/C(=C/c1ccc(C(=O)NO)cc1)COc1cccc2ccccc12 [Example 1-2, (E)-4-(3-(3-(1H-Imidazol-1-yl)propylamino)-2-((naphthalen-1-yloxy)methyl)-3-oxopropenyl)-N-hydroxybenzamide] |
| 0.014 µM | CC(C)N(CCNC(=O)/C(=C/c1ccc(C(=O)NO)cc1)COc1cccc2ccccc12)C(C)C [Example 1-5] |
| 0.021 µM | O=C(NCCCN1CCOCC1)/C(=C/c1ccc(C(=O)NO)cc1)COc1cccc2ccccc12 [Example 1-18, (E)-4-(3-(3-Morpholinopropylamino)-2-((naphthalen-1-yloxy)methyl)-3-oxoprop-1-enyl)-N-hydroxybenzamide] |
| 0.03 µM | COCCNC(=O)/C(=C/c1ccc(C(=O)NO)cc1)COc1cccc2ccccc12 [Example 1-14, (E)-4-(3-(2-Methoxyethylamino)-2-((naphthalen-1-yloxy)methyl)-3-oxoprop-1-enyl)-N-hydroxybenzamide] |
| 0.04 µM | O=C(NC1CCCCC1)/C(=C/c1ccc(C(=O)NO)cc1)COc1cccc2ccccc12 [Example 1-15, (E)-4-(3-(Cyclohexylamino)-2-((naphthalen-1-yloxy)methyl)-3-oxoprop-1-enyl)-N-hydroxybenzamide] |
| 0.01 µM | O=C(NCc1cccs1)/C(=C/c1ccc(C(=O)NO)cc1)COc1cccc2ccccc12 [Example 1-16, (E)-4-(3-(Thiophen-2-ylmethylamino)-2-((naphthalen-1-yloxy)methyl)-3-oxoprop-1-enyl)-N-hydroxybenzamide] |

| Compound | IC50 |
| --- | --- |
| (E)-(3-(3-(Pyrrolidin-1-yl)propylamino)-2-((naphthalen-1-yloxy)methyl)-3-oxoprop-1-enyl)-N-hydroxybenzamide [Example 1-20] | 0.006 µM |
| (E)-(3-(3-(2-Methylpiperidin-1-yl)propylamino)-2-((naphthalen-1-yloxy)methyl)-3-oxoprop-1-enyl)-N-hydroxybenzamide [Example 1-19] | 0.009 µM |

Same assay, conditions: Table 3, formula (2) series; HeLa nuclear extract as source of HDAC enzymes; enzyme reaction 1 hr; read-out: IC50 (HDAC inhibitory concentration)

| IC50 | Compound |
| --- | --- |
| 0.01 µM | O=C(CCCC/C=C(\COc1cccc2ccccc12)C(=O)NC1CCN(CC2CCCCC2)C1)NO (centres unmarked) [Example 2-18, (E)-N1-(1-(Cyclohexylmethyl)pyrrolidin-3-yl)-N8-hydroxy-2-((naphthalen-1-yloxy)methyl)-2-octenediamide] |
| 0.027 µM | O=C(CCCC/C=C(\COc1cccc2ccccc12)C(=O)NCCC1=CCCCC1)NO [Example 2-9, (E)-N1-(2-Cyclohexenylethyl)-N8-hydroxy-2-((naphthalen-1-yloxy)methyl)-2-octenediamide] |
| 0.017 µM | COCC(C)NC(=O)/C(=C/CCCCC(=O)NO)COc1cccc2ccccc12 (centres unmarked) [Example 2-5, (E)-N8-Hydroxy-N1-(1-methoxypropan-2-yl)-2-((naphthalen-1-yloxy)methyl)-2-octenediamide] |
| 0.013 µM | CCN1CCC(NC(=O)/C(=C/CCCCC(=O)NO)COc2cccc3ccccc23)CC1 [Example 2-28, (E)-N1-(1-Ethylpiperidin-4-yl)-N8-hydroxy-2-((naphthalen-1-yloxy)methyl)-2-octenediamide] |
| 0.021 µM | (E)-N1-(3-(Dimethylamino)-2,2-dimethylpropyl)-N8-hydroxy-2-((naphthalen-1-yloxy)methyl)octenediamide [Example 2-3] |
| 0.02 µM | O=C(CCCC/C=C(\COc1cccc2ccccc12)C(=O)NCCc1ccc(F)cc1)NO [Example 2-7, (E)-N1-(4-Fluorophenethyl)-N8-hydroxy-2-((naphthalen-1-yloxy)methyl)-2-octenediamide] |
| 0.016 µM | O=C(CCCC/C=C(\COc1cccc2ccccc12)C(=O)NCCCN1CCCC1=O)NO [Example 2-10, (E)-N8-Hydroxy-2-((naphthalen-1-yloxy)methyl)-N1-(3-(2-oxopyrrolidin-1-yl)propyl)-2-octenediamide] |
| 0.009 µM | O=C(CCCC/C=C(\COc1cccc2ccccc12)C(=O)NCCc1ccc(O)cc1)NO [Example 2-2, (E)-N8-Hydroxy-N1-(4-hydroxyphenethyl)-2-((naphthalen-1-yloxy)methyl)-2-octenediamide] |
| 0.009 µM | (E)-N1-(2-(Diisopropylamino)ethyl)-N8-hydroxy-2-((naphthalen-1-yloxy)methyl)octenediamide [Example 2-4] |
| 0.007 µM | O=C(CCCC/C=C(\COc1cccc2ccccc12)C(=O)NCc1ccc(OC(F)(F)F)cc1)NO [Example 2-17, (E)-N8-Hydroxy-2-((naphthalen-1-yloxy)methyl)-N1-(4-(trifluoromethoxy)benzyl)-2-octenediamide] |
| 0.012 µM | O=C(CCCC/C=C(\COc1cccc2ccccc12)C(=O)NC1CCNC1)NO (centres unmarked) [Example 2-24, (E)-N8-Hydroxy-2-((naphthalen-1-yloxy)methyl)-N1-(pyrrolidin-3-yl)-2-octenediamide] |
| 0.022 µM | O=C(CCCC/C=C(\COc1cccc2ccccc12)C(=O)NC1CCN(C(=O)C2CCCCC2)C1)NO (centres unmarked) [Example 2-22, (E)-N1-(1-(Cyclohexanecarbonyl)pyrrolidin-3-yl)-N8-hydroxy-2-((naphthalen-1-yloxy)methyl)-2-octenediamide] |

Same assay, conditions: Table 5, formula (3) series; HeLa nuclear extract as source of HDAC enzymes; enzyme reaction 1 hr; read-out: Inhibitory conc. (IC50, μM/ml)

| IC50 | Compound |
| --- | --- |
| 0.062 µM | CC1CCCCN1CCCNC/C(=C/CCCCC(=O)NO)COc1cccc2ccccc12 (centres unmarked) [Example 3-5, (Z)—N-Hydroxy-8-(3-(2-methylpiperidin-1-yl)propylamino)-7-((naphthalen-1-yloxy)methyl)oct-6-enamide] |
| 0.042 µM | CC(C)N(CCNC/C(=C/CCCCC(=O)NO)COc1cccc2ccccc12)C(C)C [Example 3-13] |
| 0.002 µM | CN(C)CCCNC/C(=C/CCCCC(=O)NO)COc1cccc2ccccc12 [Example 3-6, (Z)-8-(3-(Dimethylamino)propylamino)-N-hydroxy-7-((naphthalen-1-yloxy)methyl)oct-6-enamide] |

Same assay, conditions: Table 7, formula (4) series; HeLa nuclear extract as source of HDAC enzymes; enzyme reaction 1 hr; read-out: HDAC Inhibitory conc. (IC50, μM/ml)

| IC50 | Compound |
| --- | --- |
| 0.14 µM | O=C(NO)c1ccc(/C=C(/CNCc2ccc(OC(F)(F)F)cc2)COc2cccc3ccccc23)cc1 [Example 4-3, (Z)—N-hydroxy-4-(3-(naphthalen-1-yloxy)-2-((4-(trifluoromethoxy)benzylamino)methyl)prop-1-enyl)-benzamide] |
| 0.02 µM | O=C(NO)c1ccc(/C=C(/CNC2CCNC2)COc2cccc3ccccc23)cc1 (centres unmarked) [Example 4-5, (Z)—N-hydroxy-4-(3-(naphthalen-1-yloxy)-2-((pyrrolidin-3-ylamino)methyl)prop-1-enyl)-benzamide] |
| 0.03 µM | O=C(NO)c1ccc(/C=C(/CNC2CCCCC2)COc2cccc3ccccc23)cc1 [Example 4-21, (Z)-4-(3-(cyclohexylamino)-2-((naphthalen-1-yloxy)methyl)prop-1-enyl)-N-hydroxybenzamide] |
| 0.045 µM | O=C(NO)c1ccc(/C=C(/CNC2CCN(CC3CCCCC3)C2)COc2cccc3ccccc23)cc1 (centres unmarked) [Example 4-8, (Z)-4-(3-(1-(cyclohexylmethyl)pyrrolidin-3-ylamino)-2-((naphthalen-1-yloxy)-methyl)prop-1-enyl)-N-hydroxybenzamide] |
| 0.013 µM | CN1CCCC1CCNC/C(=C/c1ccc(C(=O)NO)cc1)COc1cccc2ccccc12 (centres unmarked) [Example 4-14, (Z)—N-hydroxy-4-(3-(2-(1-methylpyrrolidin-2-yl)ethylamino)-2-((naphthalen-1-yloxy)methyl)prop-1-enyl)benzamide] |
| 0.04 µM | O=C(NO)c1ccc(/C=C(/CNC2CCN(C3CCCCC3)C2)COc2cccc3ccccc23)cc1 (centres unmarked) [Example 4-12, (Z)-4-(3-(1-cyclohexylpyrrolidin-3-ylamino)-2-((naphthalen-1-yloxy)methyl)prop-1-enyl)-N-hydroxybenzamide] |
| 0.208 µM | CC(C)(C)OC(=O)N1CCC(NC/C(=C/c2ccc(C(=O)NO)cc2)COc2cccc3ccccc23)C1 (centres unmarked) [Example 4-4, t-butyl (Z)-3-(3-(4-(hydroxycarbamoyl)phenyl)-2-((naphthalen-1-yloxy)methyl)allylamino)-pyrrolidine-1-carboxylate] |
| 0.061 µM | O=C(NO)c1ccc(/C=C(/CNC2CCN(C(=O)C3CCCCC3)C2)COc2cccc3ccccc23)cc1 (centres unmarked) [Example 4-6, (Z)-4-(3-(1-(cyclohexylcarbonyl)pyrrolidin-3-ylamino)-2-((naphthalen-1-yloxy)-methyl)prop-1-enyl)-N-hydroxybenzamide] |
| 0.046 µM | O=C(NO)c1ccc(/C=C(/CNC2CCN(Cc3ccccc3)C2)COc2cccc3ccccc23)cc1 (centres unmarked) [Example 4-9, (Z)-4-(3-(1-benzylpyrrolidin-3-ylamino)-2-((naphthalen-1-yloxy)methyl)prop-1-enyl)-N-hydroxybenzamide] |
